Assay results from publication PMC6268061, “Investigation of the Biological Properties of (Hetero)Aromatic Thiosemicarbazones” (Molecules, 2012).
Values after ≈ are worked out from the molar mass of the structure shown. Values joined by “and” are separate entries in the source; they are usually repeats but may differ in a detail not shown here. Equal entries are not always repeated. Where two headings read alike, the source gives them in different places.

Assays:
[1] = Lipophilicity determination using RP-HPLC (capacity factor, log k); format: physicochemical; settings: C18, MeOH 55%/H2O 45%
Source text: Reversed phase high performance liquid chromatography (RP-HPLC) methods have become popular and are widely used for lipophilicity measurements. The general procedure is the measurement of the directly accessible retention time under isocratic conditions using varying amounts of methanol as an organic modifier in the mobile phase using RP columns and calculating the logarithm of the capacity factors (log k). Log k is the logarithm of the capacity factors in chromatographic approaches that is related to the partitioning of a compound between a mobile and a (pseudo-)stationary phase. Log k is used as the lipophilicity index converted to log P scale.
A Waters Alliance 2695 XE HPLC separation module and a Waters Photodiode Array Detector 2996 (Waters Corp., Milford, MA, USA) were used. A Symmetry® C18 5 μm, 4.6 × 250 mm, Part No. WAT054275 (Waters Corp.) chromatographic column was used. The HPLC separation process was monitored using Empower™ 2 Chromatography Data Software, Waters 2009 (Waters Corp.). A mixture of MeOH p.a. (55%) and H2O-HPLC-Mili-Q Grade (45%) was used as a mobile phase. The total flow of the column was 0.9 mL/min, injection volume 30 μL, column temperature 30 °C and sample temperature 10 °C. A detection wavelength of 210 nm was chosen. A KI methanolic solution was used for the determination of dead time (tD). Retention times (tR) were measured in minutes. The capacity factors k were calculated using the Empower™ 2 Chromatography Data Software according to the formula k = (tR − tD)/tD, where tR is the retention time of the solute, whereas tD denotes the dead time obtained using an unretained analyte. Log k, calculated from the capacity factor k, is used as the lipophilicity index converted to log P scale.

[2] = system: photosynthetic electron transport (PET) in spinach chloroplasts; assay: Inhibition of photosynthetic electron transport (PET) in spinach chloroplasts; format: biochemical, Spinacia oleracea L.; settings: DCPIP photoreduction
Method: Chloroplasts were prepared from spinach (Spinacia oleracea L.) according to Masarovicova and Kralova. The inhibition of the photosynthetic electron transport (PET) in spinach chloroplasts was determined spectrophotometrically (Genesys 6, Thermo Fisher Scientific, Waltham, MA, USA) using an artificial electron acceptor 2,6-dichlorophenol-indophenol (DCIPP) according to Kralova et al. and the rate of photosynthetic electron transport was monitored as a photoreduction of DCPIP. The measurements were carried out in a phosphate buffer (0.02 mol/L, pH 7.2) containing sucrose (0.4 mol/L), MgCl2 (0.005 mol/L) and NaCl (0.015 mol/L). The chlorophyll content was 30 mg/L in these experiments and the samples were irradiated (~100 W/m^2 with 10 cm distance) with a halogen lamp (250 W) using a 4 cm water filter to prevent warming of the samples (suspension temperature 22 °C). The compounds studied were dissolved in DMSO due to their limited water solubility. […] The inhibitory efficiency of the compounds studied was expressed by IC50 values, i.e., by the molar concentration of the compounds that caused a 50% decrease in the oxygen evolution rate relative to the untreated control.

[3] = system: Candida albicans ATCC 44859; assay: In vitro antifungal susceptibility, broth microdilution; format: cell-based; settings: read-out: MIC (IC80) CA
Candida tropicalis 156 = assay: as above; format: cell-based; settings: read-out: MIC (IC80) CT
Candida krusei ATCC 6258 = assay: as above; format: cell-based; settings: Pichia kudriavzevii, read-out: MIC (IC80) CK
Candida glabrata 20/I = assay: as above; format: cell-based; settings: Nakaseomyces glabratus, read-out: MIC (IC80) CG
[4] = system: Trichosporon beigelii 1188; assay: as above; format: cell-based
Source text: The broth microdilution test was used for the assessment of the in vitro antifungal activity of the synthesized compounds against Candida albicans ATCC 44859 (CA), Candida tropicalis 156 (CT), Candida krusei ATCC 6258 (CK), Candida glabrata 20/I (CG), Trichosporon beigelii 1188 (TB), Aspergillus fumigatus 231 (AF), Absidia corymbifera 272 (AC), and Trichophyton mentagrophytes 445 (TM). Fluconazole (FLU) was used as the standard since it is a clinically used antimycotic drug. The procedure was performed using a twofold dilution of the compounds in RPMI 1640 (Sevapharma a.s., Prague, Czech Republic) buffered to pH 7.0 with […] of 3-morpholino-propane-1-sulfonic acid (MOPS, Sigma, Prague, Czech Republic). The final concentrations of the compounds ranged from 500 to 0.975 μmol/L. Drug-free controls were included. The determination of minimum inhibitory concentration (MIC) was performed according to the Clinical and Laboratory Standards Institute (CLSI, formerly NCCLS) reference protocol M27-A2 for yeasts (IC80 value) and M38-A for moulds (IC50 value). IC80 and IC50 were defined as an 80% resp. 50% or greater reduction in growth in comparison with the control. The values of MICs were determined after 24 and 48 h of static incubation at 35 °C. The final MICs for T. mentagrophytes, were determined after 72 and 120 h of incubation.

[5] = system: Aspergillus fumigatus 231; assay: as above; format: cell-based; settings: read-out: MIC (IC50) AF
Absidia corymbifera 272 = assay: as above; format: cell-based; settings: read-out: MIC (IC50) AC
[6] = system: Trichophyton mentagrophytes 445; assay: as above; format: cell-based; settings: read-out: MIC (IC50) TM
[7] = system: HCT-116 human colon cancer cells (p53 wild type); assay: In vitro antiproliferative activity, MTS assay; format: cell-based; settings: read-out: HCT-116 IC50
Method: The antiproliferative activity of all of the compounds was examined against the human colon cancer (HCT-116) cell line using an MTS assay. The HCT-116 p53 wild type cell line was chosen on the basis of our former experience and some results on the activity of quinoline-based thiosemicarbazones that was published recently. Namely, compounds 4a–l have been tested previously for their wide-ranging anticancer activity. The antiproliferative activity of the compounds evaluated was assessed using Doxorubicin as a reference compound. In general, quinoline-based thiosemicarbazones 4 seem to have a much better anticancer activity than halogenophenyl compounds 3. Thus, the quinoline nucleus can be defined as being crucial for antiproliferative activity. A more detailed analysis of the anticancer activity of quinoline-based thiosemicarbazone is available. […] Nevertheless, some more general conclusions can be drawn from the gathered data. […] The free amino group or substitution pattern with small substituents such as methyl or ethyl are favorable for activity. According to our former results the chelating ability of the compounds may be one of the prerequisites of the antiproliferative activity. In this study we have measured the UV-VIS spectra of the compounds in presence of various concentration of Fe^3+ cations to observe its chelating potency (supplementary material). […] However as 4j give also two points at 330 and 385 nm, iron chelating ability should be regarded only as one of the factor influencing the biological activity.
The human colon cancer cell line HCT116 with the wild type p53 gene (p53^+/+) were obtained from Maria Sklodowska-Curie Memorial Cancer Center in Gliwice, Poland. Briefly, the cells were seeded in 96-well plates (3 × 10^3 cells/well) in cellular proliferation assays 24 h before the addition of the chelators. The assay was performed following a 72 h incubation with varying concentrations of the agents. Each compound was tested in triplicate in a single experiment with each experiment being repeated 3 times. After 72 h incubation with the compounds being investigated, 20 µL of MTS solution was added to each well (100 µL) and incubated for 1 h at 37 °C. The optical densities of the samples were analyzed at 490 nm. Results were expressed as a percentage of the control. The inhibitory concentration (IC50) was defined as the compound concentration necessary to reduce the absorbance to 50% of the untreated control.

[8] = ATCC44859, 24 h and 48 h, only one value presented (inactive)
[9] = Candida tropicalis, 156, 24 h and 48 h, only one value presented (inactive)
[10] = ATCC6258, 24 h and 48 h, only one value presented (inactive)
[11] = 24 h and 48 h, only one value presented (inactive)
[12] = Trichosporon beigelii, 1188, 24 h and 48 h, only one value presented (inactive), read-out: MIC (IC80) TB
[13] = Aspergillus fumigatus, 231, 24 h and 48 h, only one value presented (inactive)
[14] = Lichtheimia corymbifera, 272, 24 h and 48 h, only one value presented (inactive)
[15] = Trichophyton mentagrophytes, 445, 72 h and 120 h, only one value presented (inactive)

Row | Compound | log k [1] | MIC [3, 8] | MIC (Candida tropicalis 156; [9]) | MIC (Candida krusei ATCC 6258; [10]) | MIC (Candida glabrata 20/I; [11]) | MIC [4, 12] | IC50 [5, 13] | IC50 (Absidia corymbifera 272; [14]) | IC50 [6, 15] | IC50 ([7]; HCT-116, 72 h incubation, MTS) | also measured
1 | CCNC(=S)N/N=C/c1ccc(Cl)c(Cl)c1 [Compound 3i, (E)-2-(3,4-Dichlorobenzylidene)-N-ethylhydrazinecarbothioamide] | 0.8415 | > 500 µM | > 500 µM | > 500 µM | > 500 µM | > 500 µM | > 500 µM | > 500 µM | > 500 µM | 48.5 ± 2.8 µM | IC50 [2]: 280 µM
2 | NC(=S)N/N=C/c1ccc(Cl)c(Cl)c1 [Compound 3f, (E)-2-(3,4-Dichlorobenzylidene)hydrazinecarbothioamide] | 0.6974 | > 500 µM | > 500 µM | > 500 µM | > 500 µM | > 500 µM | > 500 µM | > 500 µM | > 500 µM | 46 ± 0.9 µM | IC50 [2]: 283 µM
3 | OC(Cn1cncn1)(Cn1cncn1)c1ccc(F)cc1F [FLU, Fluconazole, reference compound] |  |  |  |  |  |  |  |  |  |  | MIC ([3]; ATCC44859, 24 h): 0.06 µM (≈ 0.0184 µg/mL); MIC ([3]; ATCC44859, 48 h): 0.12 µM (≈ 0.0368 µg/mL); MIC (Candida tropicalis 156; Candida tropicalis, 156, 24 h): 0.12 µM (≈ 0.0368 µg/mL); MIC (Candida tropicalis 156; Candida tropicalis, 156, 48 h): > 125 µM; MIC (Candida krusei ATCC 6258; ATCC6258, 24 h): 3.91 µM (≈ 1.2 µg/mL); MIC (Candida krusei ATCC 6258; ATCC6258, 48 h): 15.6 µM (≈ 4.78 µg/mL); MIC (Candida glabrata 20/I; 24 h): 0.98 µM (≈ 0.3 µg/mL); MIC (Candida glabrata 20/I; 48 h): 3.91 µM (≈ 1.2 µg/mL); MIC ([4]; Trichosporon beigelii, 1188, 24 h, read-out: MIC (IC80) TB): 0.24 µM (≈ 0.0735 µg/mL); MIC ([4]; Trichosporon beigelii, 1188, 48 h, read-out: MIC (IC80) TB): 0.48 µM (≈ 0.147 µg/mL); IC50 ([5]; Aspergillus fumigatus, 231, 24 h): > 125 µM; IC50 ([5]; Aspergillus fumigatus, 231, 48 h): > 125 µM; IC50 (Absidia corymbifera 272; Lichtheimia corymbifera, 272, 24 h): > 125 µM; IC50 (Absidia corymbifera 272; Lichtheimia corymbifera, 272, 48 h): > 125 µM; IC50 ([6]; Trichophyton mentagrophytes, 445, 72 h): 1.95 µM; IC50 ([6]; Trichophyton mentagrophytes, 445, 120 h): 3.91 µM
4 | CNC(=S)NN=Cc1ccc2ccccc2n1 [Compound 4a] | 0.6329 | > 500 µM | > 500 µM | > 500 µM | > 500 µM |  | > 500 µM | > 500 µM | > 500 µM | > 25 µM | MIC ([4]; Trichosporon beigelii, 1188, read-out: MIC (IC80) TB): > 500 µM
5 | CN(C)C(=S)N/N=C/c1cccc(Cl)c1Cl [Compound 3c, (E)-2-(2,3-Dichlorobenzylidene)-N,N-dimethylhydrazinecarbothioamide] | 0.7214 | > 125 µM | > 125 µM | > 125 µM | > 125 µM | > 125 µM | > 125 µM | > 125 µM | > 125 µM |  | 
6 | CCNC(=S)NN=Cc1ccc2ccccc2n1 [Compound 4c] | 0.6892 |  |  |  |  |  |  |  |  |  | 
7 | S=C(N/N=C/c1ccc(Br)cc1)Nc1ccccc1 [Compound 3o, (E)-2-(4-bromobenzylidene)-N-phenylhydrazinecarbothioamide] | 0.8772 | > 500 µM | > 500 µM | > 500 µM | > 500 µM | > 500 µM | > 500 µM | > 500 µM | > 500 µM | > 60 µM | 
8 | CN(C)C(=O)Nc1ccc(Cl)c(Cl)c1 [DCMU, 3-(3,4-dichlorophenyl)-1,1-dimethylurea, reference compound] |  |  |  |  |  |  |  |  |  |  | IC50 [2]: ~1.9 µM and 1.9 µM
9 | CCNC(=S)NN=Cc1ccc2cccc(O)c2n1 [Compound 4g] | 0.6810 |  |  |  |  |  |  |  |  |  | 
10 | CNC(=S)N/N=C/c1ccc(Br)cc1 [Compound 3l, (E)-2-(4-bromobenzylidene)-N-methylhydrazinecarbothioamide] | 0.6993 | > 500 µM | > 500 µM | > 500 µM | > 500 µM | > 500 µM | > 500 µM | > 500 µM | > 500 µM | > 60 µM | 
11 | COc1cccc2c1C(=O)c1c(O)c3c(c(O)c1C2=O)C[C@@](O)(C(=O)CO)C[C@@H]3O[C@H]1C[C@H](N)[C@H](O)[C@H](C)O1 [DXR, doxorubicin, reference compound] |  |  |  |  |  |  |  |  |  |  | IC50 ([7]; HCT-116, 72 h): 10 ± 1.1 µM
12 | S=C(NN=Cc1ccc2ccccc2n1)Nc1ccccc1 [Compound 4d] | 0.7553 |  |  |  |  |  |  |  |  |  | 
